Source: the supplement of paper PMC11061612

Columns and labels:
[1] = test system: OVMIU (Ovarian Carcinoma); assay: Bliss excess, mean over the matrix (fraction); higher = more synergy
Method in brief: (§1)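 Cell lines grown in DMEM/F12 or RPMI with 10% FBS were plated in 1536-well plates and held 24 hours at 37°C, 5% CO2 before 72 hours of exposure to two-drug dose matrices, with DMSO typically at 0.2%. CellTiter-Glo 2.0 luminescence gave viability, which was converted to inhibition. Vehicle wells were set to 0 and blank wells to 1. Combination Emax is the second-highest inhibition in the matrix, and Bliss excess is the observed combination effect minus the expected EA + EB − EA·EB, where EA and EB are the single-agent effects.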

[2] = test system: VAL (B-Cell Non-Hodgkin's Lymphoma); assay: as above
Method in brief: as §1

[3] = test system: HEC-1 (Endometrial Carcinoma); assay: as above
Method in brief: as §1

[4] = test system: OPM-2 (Plasma Cell Myeloma); assay: combination Emax (second highest fraction inhibited in the dose matrix, 72 h); higher = more inhibition; extreme values may be limits of the assay
Method in brief: as §1

A2058 (Melanoma) = assay: as above
Method in brief: as §1

[5] = test system: SHP-77 (Small Cell Lung Carcinoma); assay: as above
Method in brief: as §1

GB-1 (Glioblastoma) = assay: as above
Method in brief: as §1

[6] = test system: SK-PN-DW (Other Solid Carcinomas); assay: as above
Method in brief: as §1

LN-229 (Glioblastoma) = assay: as above
Method in brief: as §1

[7] = test system: OVMIU (Ovarian Carcinoma); assay: as above
Method in brief: as §1

[8] = test system: SU-DHL-10 (B-Cell Non-Hodgkin's Lymphoma); assay: as above
Method in brief: as §1

[9] = test system: RKN (Other Solid Carcinomas); assay: as above
Method in brief: as §1

WM278 (Melanoma) = assay: as above
Method in brief: as §1

[10] = test system: OAW-42 (Ovarian Carcinoma); assay: as above
Method in brief: as §1

[11] = test system: LB996-RCC (Kidney Carcinoma); assay: as above
Method in brief: as §1

[12] = test system: CAL-62 (Thyroid Gland Carcinoma); assay: as above
Method in brief: as §1

[13] = test system: PANC-03-27 (Pancreatic Carcinoma); assay: as above
Method in brief: as §1

[14] = test system: LXF-289 (Lung Adenocarcinoma); assay: as above
Method in brief: as §1

[15] = test system: NCI-H446 (Small Cell Lung Carcinoma); assay: as above
Method in brief: as §1

[16] = test system: TE-8 (Esophageal Squamous Cell Carcinoma); assay: as above
Method in brief: as §1
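For Bliss excess, mean over the matrix in this document: after 72 h of two-drug dosing.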

| SMILES | Bliss excess [1] | Bliss excess [2] | Bliss excess [3] | combination Emax [4] | combination Emax (A2058 (Melanoma)) | combination Emax [5] | combination Emax (GB-1 (Glioblastoma)) | combination Emax [6] | combination Emax (LN-229 (Glioblastoma)) | combination Emax [7] | combination Emax [8] | combination Emax [9] | combination Emax (WM278 (Melanoma)) | combination Emax [10] | combination Emax [11] | combination Emax [12] | combination Emax [13] | combination Emax [14] | combination Emax [15] | combination Emax [16] |
| --- | --- | --- | --- | --- | --- | --- | --- | --- | --- | --- | --- | --- | --- | --- | --- | --- | --- | --- | --- | --- |
| COc1nnc2ccc(N3CCC(c4ccc(OCCN5CCN(C)C(=O)[C@H]5C)cc4)CC3)nn12 [AZD5153] + Cc1c2c(nn1C)CSCc1cc(n(C)n1)CSc1cc(c3ccccc3c1)OCCCc1c(C(=O)O)n(C)c3c-2c(Cl)ccc13 [AZD5991] (first compound max 1 µM, 7x7, partner max 1 µM) | -0.0072 | -0.112 | 0.0132 | 1 | 0.975 | 0.544 | 0.288 | 0.985 | 0.629 | 0.813 | 1 | 0.495 | 0.484 | 0.615 | 0.491 | 0.795 | 0.252 | 0.903 | 0.998 | 0.705 |
| Cc1nc(Nc2ncc(C(=O)Nc3c(C)cccc3Cl)s2)cc(N2CCN(CCO)CC2)n1 [Dasatinib] + CC(=O)Nc1cccc(-n2c(=O)n(C3CC3)c(=O)c3c(Nc4ccc(I)cc4F)n(C)c(=O)c(C)c32)c1 [Trametinib] (first compound max 2 µM, 7x7, partner max 1 µM) | -0.0298 | -0.0543 | 0.0095 | 0.801 | 0.644 | 0.172 | 0.701 | 0.141 | 0.548 | 0.798 | 0.837 | 0.712 | 0.808 | 0.722 | 0.893 | 0.955 | 0.713 | 0.986 | 0.444 | 0.865 |
| Cc1c2c(nn1C)CSCc1cc(n(C)n1)CSc1cc(c3ccccc3c1)OCCCc1c(C(=O)O)n(C)c3c-2c(Cl)ccc13 [AZD5991] + Cn1cnc2c(F)c(Nc3ccc(Br)cc3Cl)c(C(=O)NOCCO)cc21 [Selumetinib] (first compound max 1 µM, 7x7, partner max 3 µM) | -0.0284 | -0.0227 | -0.0318 | 1 | 0.991 | 0.598 | 0.174 | 0.887 | 0.428 | 0.383 | 1 | 0.292 | 0.648 | 0.263 | 0.255 | 0.354 | 0.597 | 0.398 | 0.563 | 0.415 |
| COc1nnc2ccc(N3CCC(c4ccc(OCCN5CCN(C)C(=O)[C@H]5C)cc4)CC3)nn12 [AZD5153] + CC1(C)CCC(CN2CCN(c3ccc(C(=O)NS(=O)(=O)c4ccc(NCC5CCOCC5)c([N+](=O)[O-])c4)c(Oc4cnc5[nH]ccc5c4)c3)CC2)=C(c2ccc(Cl)cc2)C1 [Venetoclax] (first compound max 1 µM, 7x7, partner max 1 µM) | -0.0254 | -0.0493 | -0.0443 | 1 | 0.432 | 0.405 | 0.256 | 0.482 | 0.309 | 0.666 | 1 | 0.485 | 0.447 | 0.35 | 0.473 | 0.753 | 0.255 | 0.646 | 0.858 | 0.491 |
| CS(=O)(=O)CCNCc1ccc(-c2ccc3ncnc(Nc4ccc(OCc5cccc(F)c5)c(Cl)c4)c3c2)o1 [Lapatinib] + C[C@@H](Oc1cc(-c2cnn(C3CCNCC3)c2)cnc1N)c1c(Cl)ccc(F)c1Cl [Crizotinib] (first compound max 10 µM, 7x7, partner max 10 µM) | -0.0097 | -0.0531 | -0.021 | 0.944 | 0.991 | 0.817 | 0.843 | 0.938 | 0.334 | 0.969 | 1 | 0.294 | 0.768 | 0.732 | 0.98 | 0.776 | 0.835 | 1 | 0.965 | 0.71 |
| Cn1cnc2c(F)c(Nc3ccc(Br)cc3Cl)c(C(=O)NOCCO)cc21 [Selumetinib] + C=CCn1c(=O)c2cnc(Nc3ccc(N4CCN(C)CC4)cc3)nc2n1-c1cccc(C(C)(C)O)n1 [AZD1775] (first compound max 10 µM, partner max 1 µM) | -0.0888 | -0.052 | -0.0448 | 0.834 | 0.685 | 0.35 | 0.321 | 0.798 | 0.316 | 0.498 | 0.98 | 0.42 | 0.641 | 0.513 | 0.717 | 0.607 | 0.815 | 0.514 | 0.925 | 0.57 |
